In US4137314A, “7-Dithioacetamido cephalosporins and pharmaceutical compositions and methods employing them having antibacterial activity” (SmithKline Corporation, priority 1977, dated 1979):
In brackets after ≈: the same amount, converted by molar mass. Where two headings read alike, the source gives them in different places.

Key:
Experiment in all cases: MIC, standard agar inclusion method
Type in all cases: cell-based
S. aureus HH127 = settings: Staphylococcus aureus
S. aureus SK23390 = settings: Staphylococcus aureus
S. aureus Villaluz = settings: Staphylococcus aureus
Strep. faecalis HH34358 = settings: Enterococcus faecalis
E. coli SK12140 = settings: Escherichia coli
E. coli HH33779 = settings: Escherichia coli
Kleb. pneumo. SK4200 = test system: Kleb. pneumo. SK4200
Kleb. pneumo. SK1200 = test system: Kleb. pneumo. SK1200
[1] = test system: Salmonella paratuphi ATCC12176
[2] = test system: Shegella paradysenteriae HH117
Pseudo aeruginosa HH63 = test system: Pseudo aeruginosa HH63
Serratia marc. ATCC13880 = test system: Serratia marc. ATCC13880
Proteus morgani 179 = test system: Proteus morgani 179
Entero. aerogenes 13048 = settings: Klebsiella aerogenes
Entero. cloacae HH31254 = settings: Enterobacter cloacae
[3] = Entero. aerogenes 13048, agar inclusion, read-out: MIC
[4] = Entero. cloacae HH31254, agar inclusion, read-out: MIC

CSSCC(=O)NC1C(=O)N2C(C(=O)O)=C(CSc3nnnn3C)CSC12 (stereo not drawn) [A, 7-methyldithioacetamido-3-(1-methyltetrazol-5-yl-thiomethyl)-3-cephem-4-carboxylic acid]
MIC (S. aureus HH127): 0.4 µg/mL (≈ 0.892 µM)
MIC (S. aureus SK23390): 0.4 µg/mL (≈ 0.892 µM)
MIC (S. aureus Villaluz): 6.3 µg/mL (≈ 14 µM)
MIC (Strep. faecalis HH34358): 12.5 µg/mL (≈ 27.9 µM)
MIC (E. coli SK12140): 3.1 µg/mL (≈ 6.91 µM)
MIC (E. coli HH33779): 6.3 µg/mL (≈ 14 µM)
MIC (Kleb. pneumo. SK4200): 3.1 µg/mL (≈ 6.91 µM)
MIC (Kleb. pneumo. SK1200): 0.8 µg/mL (≈ 1.78 µM)
MIC [1]: 0.8 µg/mL (≈ 1.78 µM)
MIC [2]: 0.8 µg/mL (≈ 1.78 µM)
MIC (Pseudo aeruginosa HH63): > 200 µg/mL
MIC (Serratia marc. ATCC13880): > 200 µg/mL
MIC (Proteus morgani 179): > 200 µg/mL
MIC (Entero. aerogenes 13048; [3]): 3.1 µg/mL (≈ 6.91 µM)
MIC (Entero. cloacae HH31254; [4]): 1.6 µg/mL (≈ 3.57 µM)

Cn1nnnc1SCC1=C(C(=O)O)N2C(=O)C(NC(=O)CSSC(Cl)(Cl)Cl)C2SC1 (stereo not drawn) [B, 7-(trichloromethyldithioacetamido)-3-(1-methyltetrazol-5-ylthiomethyl)-3-cephem-4-carboxylic acid]
MIC (S. aureus HH127): 3.1 µg/mL (≈ 5.62 µM)
MIC (S. aureus SK23390): 3.1 µg/mL (≈ 5.62 µM)
MIC (S. aureus Villaluz): 50 µg/mL (≈ 90.6 µM)
MIC (Strep. faecalis HH34358): 50 µg/mL (≈ 90.6 µM)
MIC (E. coli SK12140): 12.5 µg/mL (≈ 22.6 µM)
MIC (E. coli HH33779): 100 µg/mL (≈ 181 µM)
MIC (Kleb. pneumo. SK1200): 6.3 µg/mL (≈ 11.4 µM)
MIC [1]: 6.3 µg/mL (≈ 11.4 µM)
MIC [2]: 12.5 µg/mL (≈ 22.6 µM)
MIC (Pseudo aeruginosa HH63): > 200 µg/mL
MIC (Serratia marc. ATCC13880): > 200 µg/mL
MIC (Proteus morgani 179): > 200 µg/mL
MIC (Entero. aerogenes 13048; [3]): 100 µg/mL (≈ 181 µM)
MIC (Entero. cloacae HH31254; HH31254): 12.5 µg/mL (≈ 22.6 µM)

Cn1nnnc1SCC1=C(C(=O)O)N2C(=O)C(NC(=O)CSSC(F)(F)F)C2SC1 (stereo not drawn) [C]
MIC (S. aureus HH127): 3.1 µg/mL (≈ 6.17 µM)
MIC (S. aureus SK23390): 3.1 µg/mL (≈ 6.17 µM)
MIC (S. aureus Villaluz): 6.3 µg/mL (≈ 12.5 µM)
MIC (Strep. faecalis HH34358): 50 µg/mL (≈ 99.5 µM)
MIC (E. coli SK12140): 12.5 µg/mL (≈ 24.9 µM)
MIC (E. coli HH33779): 25 µg/mL (≈ 49.7 µM)
MIC (Kleb. pneumo. SK4200): 6.3 µg/mL (≈ 12.5 µM)
MIC (Kleb. pneumo. SK1200): 3.1 µg/mL (≈ 6.17 µM)
MIC [1]: 6.3 µg/mL (≈ 12.5 µM)
MIC [2]: 3.1 µg/mL (≈ 6.17 µM)
MIC (Pseudo aeruginosa HH63): > 100 µg/mL
MIC (Serratia marc. ATCC13880): > 100 µg/mL
MIC (Proteus morgani 179; Proteus morgani 179, agar inclusion, read-out: MIC): > 100 µg/mL
MIC (Entero. aerogenes 13048; [3]): 100 µg/mL (≈ 199 µM)
MIC (Entero. cloacae HH31254; [4]): 12.5 µg/mL (≈ 24.9 µM)

Cc1nnc(SCC2=C(C(=O)O)N3C(=O)[C@@H](NC(=O)Cn4cnnn4)[C@H]3SC2)s1 [Cefazolin, reference compound]
MIC (S. aureus HH127): 0.4 µg/mL (≈ 0.88 µM)
MIC (S. aureus SK23390): 0.4 µg/mL (≈ 0.88 µM)
MIC (S. aureus Villaluz): 25 µg/mL (≈ 55 µM)
MIC (Strep. faecalis HH34358): 6.3 µg/mL (≈ 13.9 µM)
MIC (E. coli SK12140): 1.6 µg/mL (≈ 3.52 µM)
MIC (E. coli HH33779): 3.1 µg/mL (≈ 6.82 µM)
MIC (Kleb. pneumo. SK4200): 3.1 µg/mL (≈ 6.82 µM)
MIC [1]: 1.6 µg/mL (≈ 3.52 µM)
MIC [2]: 0.8 µg/mL (≈ 1.76 µM)
MIC (Pseudo aeruginosa HH63): > 200 µg/mL
MIC (Serratia marc. ATCC13880): > 200 µg/mL
MIC (Proteus morgani 179): > 200 µg/mL
MIC (Entero. aerogenes 13048; 13048): 1.6 µg/mL (≈ 3.52 µM)

CSSCC(=O)NC1C(=O)N2C(C(=O)O)=C(COC(C)=O)CSC12 (stereo not drawn) [D, 7-(methyldithioacetamido)-cephalosporanic acid]
MIC (S. aureus HH127): 0.2 µg/mL (≈ 0.51 µM)
MIC (S. aureus SK23390): 0.2 µg/mL (≈ 0.51 µM)
MIC (S. aureus Villaluz): 3.1 µg/mL (≈ 7.9 µM)
MIC (Strep. faecalis HH34358): 12.5 µg/mL (≈ 31.8 µM)
MIC (E. coli SK12140): 6.3 µg/mL (≈ 16.1 µM)
MIC (E. coli HH33779): 12.5 µg/mL (≈ 31.8 µM)
MIC (Kleb. pneumo. SK4200): 3.1 µg/mL (≈ 7.9 µM)
MIC (Kleb. pneumo. SK1200): 3.1 µg/mL (≈ 7.9 µM)
MIC [1]: 6.3 µg/mL (≈ 16.1 µM)
MIC [2]: 1.6 µg/mL (≈ 4.08 µM)
MIC (Pseudo aeruginosa HH63): > 200 µg/mL
MIC (Serratia marc. ATCC13880): > 200 µg/mL
MIC (Proteus morgani 179): > 200 µg/mL
MIC (Entero. aerogenes 13048; [3]): 25 µg/mL (≈ 63.7 µM)
MIC (Entero. cloacae HH31254; [4]): 25 µg/mL (≈ 63.7 µM)
